Molecules are shown by their SMILES.

From US20220193171A1, “PHARMACEUTICAL COMPOSITION COMPRISING MIXTURE EXTRACT OF COPTIS RHIZOME AND SCHIZONEPETA TENUIFOLIA AS ACTIVE INGREDIENT FOR PREVENTION OR TREATMENT OF INFLAMMATORY BOWEL DISEASE” (HELIXMITH CO., LTD, priority 2019, published 2022) come the findings set out here.

Assay [1] concerns DSS-induced enteritis model. Kind of assay: Effects of single herbal extracts in DSS-induced enteritis model (Example 2). It counts as in vivo, mice (C57BL/6). Conditions: 5-ASA 25 mg/kg orally once/day for 14 days; 2.5% DSS 5 days. The procedure:
After 8-week-old male mice (C57BL/6) were acclimated for one week or longer, the mice were classified into: a normal group; a DSS and distilled water administration group in which Dextran Sulfate Sodium (DSS; 36,000-50,000 MW, MP Biomedicals, USA) was administered to induce ulcerative colitis and then distilled water was administered (negative control); a DSS and 5-aminosalicylic acid (5-ASA; Tokyo Chemical Industry Co., Japan) administration group (positive control group); and groups in which DSS and respective single herbal extracts prepared in Example 1 were administered (experimental groups).
(§1) The DSS-induced enteritis model has been known to show similar morphological changes and symptoms to human ulcerative colitis. The mice were fed 100 mL of DSS diluted in drinking water to 2.5%, which was then changed every two days. After the induction by DSS for 5 days, drinking water was changed.
5-ASA, used as a drug for the positive control group, was diluted in drinking water to 25 mg/kg, and administered orally once/day for 14 days from the start date of the experiment. Each single herbal extract was orally administered at a dose of 100 mg/kg once/day for 14 days from the start date of the experiment.
The mice of each group were weighed to calculate weight loss rates, and the feces state and the presence of bloody feces were checked, every day after the start of the experiment. Scoring was conducted for the three indicators according to the standards in Table 2 below.
Disease activity index (DAI), which is the sum calculated according to the scoring standards on Table 2 above, is shown in Table 3 below and FIG. 1.
On the last day of the experiment, the mice were sacrificed with carbon dioxide gas, and the colon site was excised. The colon length was measured from the excised colon, and then the state of the intestinal mucosa was investigated by incision in the longitudinal direction.
The histological colitis score was calculated by measuring the lengths of the mucosal ulcer site and the damaged mucosal layer in the colon tissue and averaging the values.

In the next assay the test system is IL-23. Kind of assay: Quantitative PCR of IL-23 expression in colon of DSS-induced colitis mice (Example 6). The format is in vivo, mouse. To be noted: relative value vs normal group, GAPDH standard; colon RNA; 5-ASA 25 mg/kg orally. The procedure: (§2) RNA was isolated from the colon of the mice collected in Example 5 by using TRIzol (Invitrogen, USA). Thereafter, quantitative PCR through primers specific to the inflammatory factors TNF-α, IL-1β, IL-17, IL-23, CCL2, and MIP-2, and SYBR green (Takara, Japan) was performed using cDNA obtained by performing RT-PCR. The expression levels of RNA obtained therefrom were expressed as a relative change compared with the untreated group (normal group) by using GAPDH mRNA as the standard gene. The experimental results are shown in Tables 11 to 16 below and FIGS. 8 to 13.

The test system of assay [2] is DSS-induced colitis mice. Kind of assay: Effects of single herbal extracts with different concentration in DSS-induced colitis mice (Example 4). The format is in vivo, mice (C57BL/6). To be noted: 5-ASA 25 mg/kg orally; 2.5% DSS 6 days. The procedure: After 8-week-old male mice (C57BL/6) were acclimated for one week or longer, the mice were classified into: a normal group; a DSS and distilled water administration group (negative control); a DSS and 5-ASA administration group (positive control group); and groups in which DSS and extracts of four kinds of herbs (Coptis Rhizome, […] Herba, Schizonepeta tenuifolia Briquet, and […] Herba) selected in Example 1 (experimental groups). The mice were fed 100 mL of DSS diluted in drinking water to 2.5%, which was then changed every two days. To evaluate the effects of single herbal extracts with different concentrations, DSS was administered for a total of 6 days, and then drinking water was changed. 5-ASA was distilled in drinking water to 25 mg/kg and orally administered. Each single herbal extract was orally administered at doses of 10, 30, and 100 mg/kg once/day for 14 days from the start date of the experiment, and the body weight change, feces state, and the presence of bloody feces were checked every day. In addition, DAI scores were calculated based on the results of the body weight change, feces state, and the presence of bloody feces, and the results are shown in Table 9 below and FIG. 6.

The next assay relates to IL-17. Kind of assay: Quantitative PCR of IL-17 expression in colon of DSS-induced colitis mice (Example 6). The format is in vivo, mouse. To be noted: relative value vs normal group, GAPDH standard; colon RNA; 5-ASA 25 mg/kg orally. The protocol:
as §2

Assay [3] deals with DSS-induced colitis mice. Kind of assay: Comparison of single extracts and mixed extracts in DSS-induced colitis mice (Example 5). The format is in vivo, mice (C57BL/6). Conditions: 5-ASA 25 mg/kg orally; 2.5% DSS 5 days. The protocol: After 8-week-old male mice (C57BL/6) were acclimated for one week or longer, the mice were classified into: a normal group; a DSS administration group, a DSS and distilled water administration group (negative control); a DSS and 5-ASA administration group (positive control group); and a group administered DSS and Coptis Rhizome 100 mg/kg, a group administered DSS and Schizonepeta tenuifolia Briquet 10 mg/kg, and a group administered DSS, Coptis Rhizome 100 mg/kg, and Schizonepeta tenuifolia Briquet 10 mg/kg (mixed extract administration group). The mice were fed 100 mL of DSS diluted in drinking water to 2.5%, which was then changed every two days. After DSS administration for 5 days, drinking water was changed. 5-ASA, used as a drug for the positive control group, was diluted in drinking water to 25 mg/kg, and orally administered. Coptis Rhizome 100 mg/kg, Schizonepeta tenuifolia Briquet 10 mg/kg, and a 10:1 mixture of Coptis Rhizome and Schizonepeta tenuifolia Briquet at a dose of 110 mg/kg were orally administered once/day for 14 days, and the body weight change rate, feces state, and the presence of bloody feces were checked every day.

A further assay deals with MIP-2. Kind of assay: Quantitative PCR of MIP-2 expression in colon of DSS-induced colitis mice (Example 6). It counts as in vivo, mouse. To be noted: relative value vs normal group, GAPDH standard; colon RNA; 5-ASA 25 mg/kg orally. The procedure:
as §2

The subject of the next assay is IL-1β. Kind of assay: Quantitative PCR of IL-1β expression in colon of DSS-induced colitis mice (Example 6). Conditions: relative value vs normal group, GAPDH standard; colon RNA; 5-ASA 25 mg/kg orally. The format is in vivo, mouse. The protocol:
as §2

In assay [4] the test system is DNBS-induced enteritis model. Kind of assay: Effects of single herbal extracts on DNBS-induced enteritis model (Example 3). The format is in vivo, mice (C57BL/6). Conditions: 5-ASA 25 mg/kg orally once/day for 5 days; DNBS rectal. The procedure: After 8-week-old male mice (C57BL/6) were acclimated for one week or longer, the mice were classified into: a normal group; a DNBS and distilled water administration group in which dinitrobenzene sulfonic acid (DNBS; Sigma-Aldrich, USA) was administered to induce inflammatory bowel disease and then distilled water was administered (negative control); a DNBS and 5-ASA administration group (positive control group); and groups in which DNBS and extracts of 11 kinds of herbs (Terminaliae Fructus, Selaginellae Herba, Schizonepeta tenuifolia Briquet, Geranii Herba, Psoraleae Semen, Thujae Orientalis Folium, Coptis Rhizome, Galla Rhois, Ailanthi Radicis Cortex, Puerariae Radix, and Liriopis Tuber) selected in Example 2 (experimental groups).
The DNBS-induced enteritis model is known to be closely related with human Crohn's disease in that T cell-mediated immune response is induced. DNBS in 50% ethanol/distilled water at 40 mg/mL was prepared, and 0.1 mL was slowly injected into the rectum of the mouse by using a catheter. 5-ASA, used as a drug for the positive control group, was diluted in drinking water to 25 mg/kg, and administered orally once/day for 5 days from the start date of the experiment. […]
On the last day of the experiment, the mice were sacrificed with carbon dioxide gas, and the colon site was excised, and the colon length was measured.

Assay [5] deals with DSS-induced enteritis model. Kind of assay: Effects of single and mixed herbal extracts on DSS-induced enteritis model (Example 11). It counts as in vivo, mice (C57BL/6). Conditions: 5-ASA 25 mg/kg orally once/day for 10 days; 2.5% DSS 5 days. The protocol: After 8-week-old male mice (C57BL/6) were acclimated for one week or longer, the mice were classified into: a normal group;
a DSS and distilled water administration group in which Dextran Sulfate Sodium (DSS; 36,000-50,000 MW, MP Biomedicals, USA) was administered to induce ulcerative colitis and then distilled water was administered (negative control); a DSS and 5-aminosalicylic acid (5-ASA; Tokyo Chemical Industry Co., Japan) administration group (positive control group); and groups in which together with DSS, Coptis Rhizome and Schizonepeta tenuifolia Briquet extracts prepared in Example 1 and mixed herbal extracts prepared in Example 7 were administered (experimental groups).
as §1
5-ASA, used as a drug for the positive control group, was diluted in drinking water to 25 mg/kg, and administered orally once/day for 10 days from the start date of the experiment. Each mixed herbal extract was orally administered at a dose of 50 mg/kg once/day for 10 days from the start date of the experiment.
The mice of each group were weighed to calculate weight loss rates every day after the start of the experiment.
In addition, DAI scores were calculated based on the results of the body weight change, feces state, and the presence of bloody feces, and the results are shown in Table 23 below and FIG. 17.
On the last day of the experiment, the mice were sacrificed with carbon dioxide gas, and the colon site was excised.

The test system of the next assay is CCL2. Kind of assay: Quantitative PCR of CCL2 expression in colon of DSS-induced colitis mice (Example 6). It counts as in vivo, mouse. To be noted: relative value vs normal group, GAPDH standard; colon RNA; 5-ASA 25 mg/kg orally. The procedure:
as §2

For another assay, the system named is TNF-α. Kind of assay: Quantitative PCR of TNF-α expression in colon of DSS-induced colitis mice (Example 6). Conditions: relative value vs normal group, GAPDH standard; colon RNA; 5-ASA 25 mg/kg orally. It counts as in vivo, mouse. The protocol: as §2

Turning to `Nc1ccc(O)c(C(=O)O)c1` [Positive control, 5-aminosalicylic acid], in assay [1], the “Colon length (cm)” value is on record as 5.6 cm, the “DAI score of Day 10” value is 2.4 and the Histological colitis score is listed as 1.00. The IL-23 expression level in the assay on IL-23 is reported as 1.65. Also, in the assay on DSS-induced colitis mice [2], the “Body weight change rate for 14 days (%)” value is −19.38% and the “DAI score of Day 10” value turned out to be 4.8. For the same compound, the IL-17 expression level in the assay with IL-17 was 1.77. Also, in the assay on DSS-induced colitis mice [3], the “DAI score of Day 10” value stood at 2.8. In the assay with MIP-2, this compound gave an MIP-2 expression level of 1.86. In the assay with IL-1β, the IL-1β expression level is 2.28. In assay [4], the “Colon length (cm)” value stood at 7.10 cm and the “Survival rate (%)” value worked out at 60%. In addition, in [5], the “Body weight change rate for 10 days (%)” value is listed as −11.66%, the “Colon length (cm)” value is recorded as 7.04 cm and the “DAI score of DAY 10” value stood at 4.8. This compound also yielded a CCL2 expression level in the assay on CCL2 of 3.26. Also, the TNF-α expression level in the assay on TNF-α was 2.16.
